Measured values as given in ChEMBL document CHEMBL3351395, “Podoimbricatin A, a cytotoxic diterpenoid with an unprecedented 6/6/5/6-fused tetracyclic ring system from the twigs and leaves of Podocarpus imbricatus” (Bioorg Med Chem Lett, 2014).

What was measured:
NCI-H292 = test: Antiproliferative activity against human NCI-H292 cells by MTT assay; assay type: functional, cell-based
A549 = test: Antiproliferative activity against human A549 cells by MTT assay; assay type: functional, cell-based

| IC50 (NCI-H292) | IC50 (A549) | Compound |
| --- | --- | --- |
| 20.3 µM | 47.8 µM | C=C1CC[C@@H]2[C@](C)(CCC[C@]2(C)C(=O)O)[C@H]1CC/C(C)=C/C(=O)O [AGATHIC ACID] |
| 17.8 µM | 21.5 µM | CCC(C)C1NC(=O)C(NC(=O)/C=C/c2ccccc2)C(C(C)C)Oc2ccc(cc2)/C=C/NC1=O (stereo unspecified) |
| 19.1 µM | 25.2 µM | CC1(C)CCC[C@]2(C)[C@H]3C[C@H]4C(CO)=CCO[C@@H]4[C@H]3C[C@H](O)[C@@H]12 |
